The record followed here is ChEMBL document CHEMBL1201862, “PubChem BioAssay data set” (2004).

Each structure is given as a SMILES string. Activity calls are given as the source filed them. Some results are limits rather than exact numbers.

Test [1] concerns the target T1, Intestinal-type alkaline phosphatase (Homo sapiens, UniProt P09923). The test is described as follows: activation of human intestinal alkaline phosphatase – biochemical, luminescent, uHTS hits, set 2, dose response (AID 488817).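 Note: potency of activators that raise enzyme activity.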 Type of test: functional.
Test [2] deals with Intestinal-type alkaline phosphatase (Mus musculus, UniProt P24822). The test is described as follows: PubChem AID 488874. Type of test: functional.
The target in test [3] is T2, Alkaline phosphatase, tissue-nonspecific isozyme (Homo sapiens, UniProt P05186).
T2 sequence (P05186 whole entry): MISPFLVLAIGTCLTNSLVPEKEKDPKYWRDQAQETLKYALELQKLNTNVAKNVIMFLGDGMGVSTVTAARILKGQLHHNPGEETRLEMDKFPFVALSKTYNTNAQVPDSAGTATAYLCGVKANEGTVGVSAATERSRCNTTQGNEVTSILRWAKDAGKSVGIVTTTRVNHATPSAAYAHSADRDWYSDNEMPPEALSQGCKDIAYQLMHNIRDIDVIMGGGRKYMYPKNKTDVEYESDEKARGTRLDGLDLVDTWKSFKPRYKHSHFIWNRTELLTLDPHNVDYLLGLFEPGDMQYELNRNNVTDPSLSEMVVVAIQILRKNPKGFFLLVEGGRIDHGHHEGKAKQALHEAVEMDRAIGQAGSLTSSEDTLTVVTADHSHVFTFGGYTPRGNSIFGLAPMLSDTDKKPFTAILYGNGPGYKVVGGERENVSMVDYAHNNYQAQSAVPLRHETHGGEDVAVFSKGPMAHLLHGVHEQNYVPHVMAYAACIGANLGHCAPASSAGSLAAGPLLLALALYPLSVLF
The test is described as follows: activation of tissue-nonspecific alkaline phosphatase – biochemical, TNAP isozyme, human IAP uHTS hits, selectivity assay for human IAP activator project, dose response (AID 488886).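 Note: potency of compounds raising TNAP activity as a selectivity check on IAP activators.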 Type of test: functional.

Test [4] concerns the target T2, Alkaline phosphatase, tissue-nonspecific isozyme.
The target in test [5] is T1, Intestinal-type alkaline phosphatase. Kind of test: human intestinal alkaline phosphatase activators, dose response, biochemical, luminescence, uHTS hits (AID 463120). Type of test: functional.
For test [6], the target named is T3, Coagulation factor XII (Homo sapiens, UniProt P00748).
T3 sequence (P00748 whole entry): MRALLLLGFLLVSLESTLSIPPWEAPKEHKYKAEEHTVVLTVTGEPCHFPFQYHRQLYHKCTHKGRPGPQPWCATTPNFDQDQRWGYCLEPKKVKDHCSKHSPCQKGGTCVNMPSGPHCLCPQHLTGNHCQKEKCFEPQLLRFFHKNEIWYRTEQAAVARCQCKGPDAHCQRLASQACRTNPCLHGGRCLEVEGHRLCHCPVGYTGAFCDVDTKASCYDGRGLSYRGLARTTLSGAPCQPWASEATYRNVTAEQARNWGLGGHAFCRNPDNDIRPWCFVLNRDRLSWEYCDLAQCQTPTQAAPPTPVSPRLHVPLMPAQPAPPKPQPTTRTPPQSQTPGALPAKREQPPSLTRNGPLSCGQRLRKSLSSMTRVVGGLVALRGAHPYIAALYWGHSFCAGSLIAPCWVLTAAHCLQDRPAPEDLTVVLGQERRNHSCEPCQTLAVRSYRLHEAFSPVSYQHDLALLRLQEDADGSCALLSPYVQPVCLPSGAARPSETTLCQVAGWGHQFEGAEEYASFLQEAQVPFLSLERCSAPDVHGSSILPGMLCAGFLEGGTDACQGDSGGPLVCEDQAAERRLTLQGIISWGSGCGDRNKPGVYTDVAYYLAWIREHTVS
Kind of test: activated coagulation factor XII inhibitor potency, concentration-effect curve, cell-free (AID 716). Type of test: functional.

Test [7] is described as follows: A549 cell cytotoxicity, dose response, cytotoxicity control, plate reader, cherry-pick, antagonist series (AID 743412). Type of test: functional, cell-based.
A short description of test [8]: toxicity toward HepG2 liver cells – cell-based, plate reader, cherry-pick, antagonist series, cytotoxicity control, dose response (AID 743416). Type of test: functional.
In test [9] the target is T4, Neuropeptides B/W receptor type 1 (Homo sapiens, UniProt P48145).
T4 sequence (P48145 whole entry): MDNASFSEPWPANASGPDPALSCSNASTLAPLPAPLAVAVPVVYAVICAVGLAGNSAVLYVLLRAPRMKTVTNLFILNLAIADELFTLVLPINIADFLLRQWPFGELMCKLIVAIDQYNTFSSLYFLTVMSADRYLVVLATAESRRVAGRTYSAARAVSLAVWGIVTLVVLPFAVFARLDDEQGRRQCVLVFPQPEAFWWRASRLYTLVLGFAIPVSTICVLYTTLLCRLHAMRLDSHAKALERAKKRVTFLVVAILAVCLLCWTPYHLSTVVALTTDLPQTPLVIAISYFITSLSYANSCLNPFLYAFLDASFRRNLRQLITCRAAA
Kind of test: Fluorescence-based dose response cell-based high throughput screening assay to identify antagonists of the G-protein coupled receptor 7 (GPR7). [Related pubchem assays: 1952 (Screening assay (GPR7 antagonists).), 1880 (Summary AID.)]. Type of test: functional.

The target of test [10] is T4, Neuropeptides B/W receptor type 1. The test is described as follows: human NPBW1 receptor blockade, IC50 – cell-based, fluorescence, dose response, late-stage follow-up (AID 463251). Type of test: functional.
Test [11] in a line: viability loss in HEK293 cells – cell-based, plate reader, cherry-picked samples, cytotoxicity control, dose response (AID 743446). Type of test: functional.
Test [12] has as its target T5, Melanin-concentrating hormone receptor 1 (Homo sapiens, UniProt Q99705). Kind of test: Late-stage fluorescence-based counterscreen for antagonists of the G-protein coupled receptor 7 (GPR7): cell-based dose response assay to identify antagonists of the melanin-concentrating hormone receptor 1 (MCHR1). [Related pubchem assays (depositor defined):AID1861, AID1880, AID1952, AID2148, AID2251, AID2257, AID485339]. Type of test: functional. In general terms: Counterscreens check selectivity or assay interference.

In test [13] the target is T5, Melanin-concentrating hormone receptor 1. The test is described as follows: Fluorescence-based counterscreen for antagonists of the G-protein coupled receptor 7 (GPR7): cell-based high throughput dose response assay to identify antagonists of the melanin-concentrating hormone receptor 1 (MCHR1). Type of test: functional.
In test [14] the test system is Saccharomyces cerevisiae. Kind of test: S. cerevisiae Caspase-1/ASC signal blockers IC50, NALP1 inhibitor project selectivity test (AID 488863). Type of test: functional, organism-based.
The target of test [15] is T6, Corticotropin-releasing factor receptor 2/Corticotropin-releasing factor-binding protein (Homo sapiens, UniProt P24387+Q13324).
T6 sequence (Q13324 whole entry): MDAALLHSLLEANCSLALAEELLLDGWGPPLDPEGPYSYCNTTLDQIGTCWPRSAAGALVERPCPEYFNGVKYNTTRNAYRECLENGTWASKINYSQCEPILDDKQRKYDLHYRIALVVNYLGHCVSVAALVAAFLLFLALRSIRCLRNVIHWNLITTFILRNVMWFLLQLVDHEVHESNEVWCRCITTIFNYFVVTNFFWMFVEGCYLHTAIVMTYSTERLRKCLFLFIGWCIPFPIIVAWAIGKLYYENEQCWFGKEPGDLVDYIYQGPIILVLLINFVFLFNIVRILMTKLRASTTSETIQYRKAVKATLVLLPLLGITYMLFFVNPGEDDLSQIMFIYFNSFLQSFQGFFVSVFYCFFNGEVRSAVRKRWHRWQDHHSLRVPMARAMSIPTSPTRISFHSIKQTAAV
T6 sequence (P24387 whole entry): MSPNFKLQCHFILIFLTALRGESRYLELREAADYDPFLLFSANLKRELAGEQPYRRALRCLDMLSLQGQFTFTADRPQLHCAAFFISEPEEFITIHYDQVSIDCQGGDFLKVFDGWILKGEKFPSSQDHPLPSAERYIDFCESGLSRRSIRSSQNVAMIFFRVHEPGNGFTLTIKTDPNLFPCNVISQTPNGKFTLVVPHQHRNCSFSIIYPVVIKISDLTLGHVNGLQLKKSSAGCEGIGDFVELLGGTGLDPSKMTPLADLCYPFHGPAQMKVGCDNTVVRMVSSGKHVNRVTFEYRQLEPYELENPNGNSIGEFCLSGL
The test is described as follows: activators of CRF receptor 2 with binding protein – uHTS hits, confirmation (AID 602473). Type of test: functional. To be noted: read-out: EC50_Mean.

Test [16] deals with NACHT, LRR and PYD domains-containing protein 1 (Homo sapiens, UniProt Q9C000). The test is described as follows: NALP1 inhibitors in yeast, dose response, luminescent (AID 488860). Type of test: functional.
Test [17] has as its target Voltage-dependent T-type calcium channel subunit alpha-1H (Homo sapiens, UniProt O95180). Kind of test: human CACNA1H calcium influx blockade – cell-based, synthetic library set 1, calcium flux (AID 493022). Type of test: functional.
Test [18] has as its target T7, Rac GTPase-activating protein 1 (Homo sapiens, UniProt Q9H0H5).
T7 sequence (Q9H0H5 whole entry): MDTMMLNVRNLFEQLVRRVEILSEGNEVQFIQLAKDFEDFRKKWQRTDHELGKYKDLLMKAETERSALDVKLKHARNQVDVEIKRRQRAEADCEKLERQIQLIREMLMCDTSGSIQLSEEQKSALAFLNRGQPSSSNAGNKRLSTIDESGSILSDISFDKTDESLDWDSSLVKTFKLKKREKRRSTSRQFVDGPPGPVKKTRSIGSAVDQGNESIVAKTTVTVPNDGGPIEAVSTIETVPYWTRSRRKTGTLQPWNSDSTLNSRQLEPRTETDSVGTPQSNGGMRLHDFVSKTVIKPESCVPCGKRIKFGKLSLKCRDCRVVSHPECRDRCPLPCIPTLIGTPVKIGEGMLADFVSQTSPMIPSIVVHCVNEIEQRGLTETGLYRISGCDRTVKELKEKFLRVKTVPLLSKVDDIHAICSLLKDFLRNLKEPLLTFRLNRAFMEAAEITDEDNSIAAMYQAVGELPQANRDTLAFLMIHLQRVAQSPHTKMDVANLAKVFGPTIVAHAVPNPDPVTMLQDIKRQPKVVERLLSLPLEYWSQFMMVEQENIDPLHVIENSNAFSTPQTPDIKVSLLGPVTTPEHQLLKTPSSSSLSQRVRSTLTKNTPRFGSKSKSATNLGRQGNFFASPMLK
Kind of test: blockers of MgcRacGAP-driven Rac1 GTP hydrolysis – biochemical, ADP Hunter fluorescence, primary and confirmatory, confirmation (AID 624330). Type of test: functional.

Test [19] addresses Hexokinase (Trypanosoma brucei, UniProt Q38C41). Kind of test: Confirmation assay for inhibitors of Trypanosoma brucei hexokinase 1-Analogue-first series. [Related pubchem assays (depositor defined):AID1430, AID1632, AID2516, AID2560, AID2579, AID2600, AID449725, AID492951]. Type of test: functional.
In test [20] the target is Glucose-6-phosphate 1-dehydrogenase (Homo sapiens, UniProt P11413). Kind of test: inhibition of Homo sapiens G6PD, dose series – biochemical, fluorescence, selectivity assay for P. falciparum G6PD inhibitor project, dose response (AID 504792). Type of test: functional.
In test [21] the target is Phosphoethanolamine/phosphocholine phosphatase (Homo sapiens, UniProt Q8TCT1). Kind of test: SAR assay for compounds that inhibit PHOSPHO1. [Related pubchem assays (depositor defined):AID1545, AID1565, AID1574].
The target in test [22] is T8, Mannose-6-phosphate isomerase (Homo sapiens, UniProt P34949).
T8 sequence (P34949 whole entry): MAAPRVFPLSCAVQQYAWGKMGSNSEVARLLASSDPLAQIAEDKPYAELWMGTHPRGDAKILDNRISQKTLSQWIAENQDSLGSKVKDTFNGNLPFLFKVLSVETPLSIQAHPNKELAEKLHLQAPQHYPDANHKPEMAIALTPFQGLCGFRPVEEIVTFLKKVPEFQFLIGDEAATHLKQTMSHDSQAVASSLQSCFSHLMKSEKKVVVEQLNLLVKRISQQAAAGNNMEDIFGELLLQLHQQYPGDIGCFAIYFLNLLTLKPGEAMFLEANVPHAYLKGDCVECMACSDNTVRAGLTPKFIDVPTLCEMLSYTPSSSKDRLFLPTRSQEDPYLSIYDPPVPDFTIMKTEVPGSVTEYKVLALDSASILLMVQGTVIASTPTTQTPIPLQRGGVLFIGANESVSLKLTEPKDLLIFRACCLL
The test is described as follows: phosphomannose isomerase inhibition – biochemical, fluorescence intensity, confirmation (AID 1535).

Test [23] concerns the target G-protein coupled receptor 55 (Homo sapiens, UniProt Q9Y2T6). The test is described as follows: selective activators of receptor GPR55 – imaging, U2OS cells, beta-arrestin-GFP redistribution, primary screen (AID 1961). Type of test: functional.

T1 sequence (P09923 whole entry): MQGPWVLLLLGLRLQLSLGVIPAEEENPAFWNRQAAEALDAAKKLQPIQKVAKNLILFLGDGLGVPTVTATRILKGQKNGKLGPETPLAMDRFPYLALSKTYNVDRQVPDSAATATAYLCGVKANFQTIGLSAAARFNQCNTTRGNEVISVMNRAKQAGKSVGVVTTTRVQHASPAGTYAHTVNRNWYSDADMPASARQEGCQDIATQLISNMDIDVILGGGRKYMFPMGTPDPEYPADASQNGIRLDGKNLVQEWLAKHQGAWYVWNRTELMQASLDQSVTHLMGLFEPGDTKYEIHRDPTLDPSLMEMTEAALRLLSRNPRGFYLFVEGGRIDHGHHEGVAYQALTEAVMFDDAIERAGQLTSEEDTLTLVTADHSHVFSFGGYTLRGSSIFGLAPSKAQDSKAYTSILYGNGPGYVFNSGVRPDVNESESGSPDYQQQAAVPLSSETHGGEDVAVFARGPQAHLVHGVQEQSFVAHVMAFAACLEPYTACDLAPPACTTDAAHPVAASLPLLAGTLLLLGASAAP
T5 sequence (Q99705 whole entry): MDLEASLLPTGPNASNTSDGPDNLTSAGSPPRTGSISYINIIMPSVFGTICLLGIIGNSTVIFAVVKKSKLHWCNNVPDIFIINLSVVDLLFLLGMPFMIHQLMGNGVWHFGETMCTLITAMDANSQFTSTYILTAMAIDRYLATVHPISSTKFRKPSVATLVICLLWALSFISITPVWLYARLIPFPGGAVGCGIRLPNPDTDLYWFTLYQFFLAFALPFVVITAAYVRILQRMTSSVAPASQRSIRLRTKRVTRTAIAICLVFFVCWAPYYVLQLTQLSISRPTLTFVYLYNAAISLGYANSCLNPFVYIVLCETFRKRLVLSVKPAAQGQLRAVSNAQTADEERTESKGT
Chain of Intestinal-type alkaline phosphatase (Mus musculus, UniProt P24822) (P24822 whole entry): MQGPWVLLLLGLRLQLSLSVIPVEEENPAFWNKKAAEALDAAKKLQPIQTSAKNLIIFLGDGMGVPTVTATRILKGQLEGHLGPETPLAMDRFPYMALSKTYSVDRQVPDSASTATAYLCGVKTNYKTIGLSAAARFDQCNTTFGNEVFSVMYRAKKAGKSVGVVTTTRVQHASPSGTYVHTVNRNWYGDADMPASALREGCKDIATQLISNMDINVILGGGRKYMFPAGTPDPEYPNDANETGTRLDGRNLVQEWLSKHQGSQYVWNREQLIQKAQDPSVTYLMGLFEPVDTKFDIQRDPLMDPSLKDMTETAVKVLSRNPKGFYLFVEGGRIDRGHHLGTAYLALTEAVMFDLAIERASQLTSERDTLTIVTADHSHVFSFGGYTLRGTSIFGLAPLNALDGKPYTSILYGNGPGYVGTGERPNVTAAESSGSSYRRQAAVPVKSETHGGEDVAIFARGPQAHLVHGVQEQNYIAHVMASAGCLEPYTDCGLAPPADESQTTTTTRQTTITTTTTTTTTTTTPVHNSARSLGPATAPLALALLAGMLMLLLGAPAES
Chain of NACHT, LRR and PYD domains-containing protein 1 (Q9C000 1-1212 limits assumed): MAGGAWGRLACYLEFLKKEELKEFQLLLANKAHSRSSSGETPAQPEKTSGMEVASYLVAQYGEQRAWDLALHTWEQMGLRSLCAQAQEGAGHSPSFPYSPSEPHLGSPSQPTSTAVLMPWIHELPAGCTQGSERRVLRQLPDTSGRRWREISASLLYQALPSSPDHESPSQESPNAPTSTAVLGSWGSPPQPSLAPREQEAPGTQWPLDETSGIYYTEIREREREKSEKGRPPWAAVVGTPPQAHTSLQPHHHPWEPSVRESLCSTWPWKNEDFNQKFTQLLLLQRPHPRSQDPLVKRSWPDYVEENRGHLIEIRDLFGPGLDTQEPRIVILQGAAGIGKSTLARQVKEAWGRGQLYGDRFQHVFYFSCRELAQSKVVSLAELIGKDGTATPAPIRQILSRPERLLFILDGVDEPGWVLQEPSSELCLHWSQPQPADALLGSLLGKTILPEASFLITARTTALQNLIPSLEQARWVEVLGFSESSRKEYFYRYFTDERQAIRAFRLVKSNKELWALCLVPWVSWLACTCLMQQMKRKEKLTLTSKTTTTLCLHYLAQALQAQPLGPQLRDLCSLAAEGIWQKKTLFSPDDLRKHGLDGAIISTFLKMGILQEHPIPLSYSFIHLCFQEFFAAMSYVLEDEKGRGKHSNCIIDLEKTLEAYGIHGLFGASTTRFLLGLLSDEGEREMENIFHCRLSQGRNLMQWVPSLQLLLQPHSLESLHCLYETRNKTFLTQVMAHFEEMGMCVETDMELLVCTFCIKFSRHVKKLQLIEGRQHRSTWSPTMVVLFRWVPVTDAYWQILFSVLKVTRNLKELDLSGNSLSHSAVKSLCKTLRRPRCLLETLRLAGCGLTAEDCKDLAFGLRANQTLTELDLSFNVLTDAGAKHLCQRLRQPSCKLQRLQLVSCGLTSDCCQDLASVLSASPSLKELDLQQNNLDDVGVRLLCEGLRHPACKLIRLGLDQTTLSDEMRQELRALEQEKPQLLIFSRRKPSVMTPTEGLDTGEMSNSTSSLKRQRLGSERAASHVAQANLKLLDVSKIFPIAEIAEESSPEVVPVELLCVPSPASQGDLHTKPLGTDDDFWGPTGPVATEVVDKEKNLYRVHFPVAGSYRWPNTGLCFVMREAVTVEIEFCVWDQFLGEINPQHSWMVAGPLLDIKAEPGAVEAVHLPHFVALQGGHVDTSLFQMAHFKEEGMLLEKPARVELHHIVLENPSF
Chain of NACHT, LRR and PYD domains-containing protein 1 (Q9C000 1213-1473 limits assumed): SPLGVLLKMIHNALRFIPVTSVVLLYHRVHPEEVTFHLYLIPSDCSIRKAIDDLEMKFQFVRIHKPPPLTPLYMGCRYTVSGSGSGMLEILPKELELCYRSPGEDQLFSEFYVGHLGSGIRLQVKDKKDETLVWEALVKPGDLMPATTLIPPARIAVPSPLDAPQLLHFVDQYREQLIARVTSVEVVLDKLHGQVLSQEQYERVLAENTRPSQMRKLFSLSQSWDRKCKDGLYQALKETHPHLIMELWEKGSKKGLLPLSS
Chain of Phosphoethanolamine/phosphocholine phosphatase (Q8TCT1 whole entry): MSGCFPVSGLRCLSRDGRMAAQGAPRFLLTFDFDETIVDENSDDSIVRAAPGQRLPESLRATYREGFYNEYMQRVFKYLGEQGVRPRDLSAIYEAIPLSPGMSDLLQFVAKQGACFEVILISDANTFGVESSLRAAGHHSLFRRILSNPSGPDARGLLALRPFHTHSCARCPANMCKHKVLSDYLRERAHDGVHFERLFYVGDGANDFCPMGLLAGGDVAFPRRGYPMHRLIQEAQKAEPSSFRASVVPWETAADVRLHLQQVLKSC
Chain of Glucose-6-phosphate 1-dehydrogenase (P11413 whole entry): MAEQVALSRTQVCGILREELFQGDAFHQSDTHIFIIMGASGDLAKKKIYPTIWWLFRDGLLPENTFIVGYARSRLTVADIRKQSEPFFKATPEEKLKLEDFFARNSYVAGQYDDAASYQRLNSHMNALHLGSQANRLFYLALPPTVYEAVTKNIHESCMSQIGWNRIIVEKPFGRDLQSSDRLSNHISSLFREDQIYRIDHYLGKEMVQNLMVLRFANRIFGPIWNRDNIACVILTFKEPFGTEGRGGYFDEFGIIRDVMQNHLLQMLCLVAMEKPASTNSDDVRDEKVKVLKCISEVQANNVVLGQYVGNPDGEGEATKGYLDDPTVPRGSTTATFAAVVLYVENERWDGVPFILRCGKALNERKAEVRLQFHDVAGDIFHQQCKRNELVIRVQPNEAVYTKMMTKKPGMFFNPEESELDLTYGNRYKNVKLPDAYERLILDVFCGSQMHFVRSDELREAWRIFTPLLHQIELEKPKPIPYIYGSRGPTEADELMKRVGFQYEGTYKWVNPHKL
Chain of Hexokinase (Q38C41 whole entry): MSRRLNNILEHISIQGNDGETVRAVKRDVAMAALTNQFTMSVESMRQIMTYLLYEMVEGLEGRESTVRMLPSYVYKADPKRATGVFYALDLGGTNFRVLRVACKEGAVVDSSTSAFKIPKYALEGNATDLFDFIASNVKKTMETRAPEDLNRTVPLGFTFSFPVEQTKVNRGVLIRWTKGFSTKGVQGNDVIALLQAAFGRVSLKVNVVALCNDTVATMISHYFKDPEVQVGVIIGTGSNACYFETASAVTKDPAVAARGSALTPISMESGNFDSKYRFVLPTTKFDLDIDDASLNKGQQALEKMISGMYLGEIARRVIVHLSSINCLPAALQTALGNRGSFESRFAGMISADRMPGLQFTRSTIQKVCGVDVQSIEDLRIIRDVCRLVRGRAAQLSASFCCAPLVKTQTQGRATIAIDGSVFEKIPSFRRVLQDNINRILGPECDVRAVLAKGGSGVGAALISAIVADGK
Chain of G-protein coupled receptor 55 (Q9Y2T6 whole entry): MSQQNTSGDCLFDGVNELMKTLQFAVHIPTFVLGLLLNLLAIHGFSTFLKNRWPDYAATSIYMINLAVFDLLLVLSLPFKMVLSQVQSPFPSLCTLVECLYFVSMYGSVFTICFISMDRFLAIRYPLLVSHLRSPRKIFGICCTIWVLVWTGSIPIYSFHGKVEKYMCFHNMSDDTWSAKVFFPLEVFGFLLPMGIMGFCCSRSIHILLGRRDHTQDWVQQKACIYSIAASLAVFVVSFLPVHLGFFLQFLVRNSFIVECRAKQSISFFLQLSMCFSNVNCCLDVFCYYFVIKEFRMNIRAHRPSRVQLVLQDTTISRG

As usually defined, the IC50 is the concentration that gives 50% inhibition. Turning to `CC(C)C(=O)NC(=S)Nc1ccccc1C(=O)Nc1ccccc1`, the EC50 in [1] was 7.62 µM (active); in test [3], 10.2 µM (active); in test [4] it was > 100 µM (not active); in [5], 6.41 µM (active). Moreover, the IC50 in [2] was 50 µM (active).
Take `COCCn1nnnc1C(c1cc2ccc(C)cc2[nH]c1=O)N(Cc1ccco1)Cc1cccs1` (stereo not drawn): in [6], the IC50 was > 50 µM (inactive).
For orientation: AC50 means the concentration giving half of the maximal activity seen. For `O=[N+]([O-])c1cc(S(=O)(=O)N2CCCCCC2)ccc1Cl`, the AC50 in test [7], in test [8] and in [11] was > 52 µM (inactive) in each case. The IC50 in test [9] was 2.88 µM (active); in test [10] it was 5.8 µM (active); in test [12] it was 10.1 µM (inactive); in [13], 8.01 µM (active).
Take `COc1ccc(C2=C/C(=C/c3cccnc3)C(=O)O2)cc1OC`: the IC50 in test [14] and in [16] was > 100 µM (inactive) throughout. The EC50 in test [15] is 3.91 µM (active).
For `O=C(COc1ccccc1F)Nc1nnc(-c2ccc3ccccc3c2)o1`, in test [17], the EC50 is 1.8 µM (active).
In the case of `O=C(Cn1sc2ccccc2c1=O)Nc1ccccc1`, the IC50 in test [18] was 73.1 µM (active); in test [19], 6.69 µM (active); in test [20] it was 12.7 µM (active).
Take `O=c1c2c([N+](=O)[O-])cc([N+](=O)[O-])cc2sn1-c1ccc(OC(F)(F)Cl)cc1`: the IC50 is 0.233 µM (active) in test [21] and 2.14 µM (active) in test [22].
For the compound `CCN(CC)c1ccc2nc3c4ccccc4c(=O)cc-3oc2c1` [NILE RED], the EC50 in [23] was < 0.5 µM (active).
